The source of these data is ChEMBL document CHEMBL1138649, “Urea derivatives of STI571 as inhibitors of Bcr-Abl and PDGFR kinases” (Bioorg Med Chem Lett, 2004).

The nature of series [1]: Inhibitory concentration required to inhibit PDGFR kinase was determined.
For series [2], the target named is Tyrosine-protein kinase ABL1 (Homo sapiens, UniProt P00519). Description: Inhibitory concentration required to inhibit Abl tyrosine kinase.
For series [3], the target named is T1, Breakpoint cluster region protein (Homo sapiens, UniProt P11274).
T1 sequence (P11274 whole entry): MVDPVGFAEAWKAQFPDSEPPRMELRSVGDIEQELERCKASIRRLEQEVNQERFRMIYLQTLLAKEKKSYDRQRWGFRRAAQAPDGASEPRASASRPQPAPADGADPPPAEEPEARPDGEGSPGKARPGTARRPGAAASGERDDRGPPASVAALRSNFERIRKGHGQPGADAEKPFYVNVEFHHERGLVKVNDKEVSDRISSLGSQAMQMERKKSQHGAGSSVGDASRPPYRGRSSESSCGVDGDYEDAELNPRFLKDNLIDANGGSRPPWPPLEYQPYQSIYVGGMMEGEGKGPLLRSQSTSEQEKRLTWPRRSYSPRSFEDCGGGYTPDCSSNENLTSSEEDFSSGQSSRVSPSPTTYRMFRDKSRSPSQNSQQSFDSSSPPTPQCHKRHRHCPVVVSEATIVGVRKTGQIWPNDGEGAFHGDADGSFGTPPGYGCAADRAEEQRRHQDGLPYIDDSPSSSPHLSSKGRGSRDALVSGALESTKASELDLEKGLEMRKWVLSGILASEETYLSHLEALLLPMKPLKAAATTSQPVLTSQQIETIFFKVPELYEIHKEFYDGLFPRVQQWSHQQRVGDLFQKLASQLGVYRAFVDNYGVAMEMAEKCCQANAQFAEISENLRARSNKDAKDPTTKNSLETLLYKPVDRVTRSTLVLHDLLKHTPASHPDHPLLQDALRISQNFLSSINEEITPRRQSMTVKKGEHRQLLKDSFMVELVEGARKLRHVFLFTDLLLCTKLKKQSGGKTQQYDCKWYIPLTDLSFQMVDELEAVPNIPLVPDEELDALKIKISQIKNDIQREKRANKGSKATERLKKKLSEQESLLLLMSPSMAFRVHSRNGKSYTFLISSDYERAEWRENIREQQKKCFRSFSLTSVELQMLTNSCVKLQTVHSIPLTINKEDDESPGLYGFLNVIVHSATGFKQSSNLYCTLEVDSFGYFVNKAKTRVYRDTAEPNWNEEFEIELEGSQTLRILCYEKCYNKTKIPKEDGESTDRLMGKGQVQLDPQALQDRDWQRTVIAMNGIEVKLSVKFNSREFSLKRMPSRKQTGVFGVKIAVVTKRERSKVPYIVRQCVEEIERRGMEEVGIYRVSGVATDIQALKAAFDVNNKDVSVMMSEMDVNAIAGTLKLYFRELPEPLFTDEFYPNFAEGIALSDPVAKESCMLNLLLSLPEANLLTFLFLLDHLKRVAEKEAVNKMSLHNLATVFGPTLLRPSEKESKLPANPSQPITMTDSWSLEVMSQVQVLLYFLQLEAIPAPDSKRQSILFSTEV
Description: Inhibitory concentration required to inhibit Bcr-Abl tyrosine kinase.

Series [4] can be described thus: Plasma concentration after 120 minutes gavage was determined in mice after 20 mg/kg oral administration of the compound. The class given is ADME, organism-based. Further details: dose 20 mg/kg, route oral. The settings on record: mouse, read-out: C120.
Series [5] in a line: Maximum plasma concentration time in minutes was determined in mice after 20 mg/kg oral administration of the compound. It is filed as ADME, organism-based. The arrangement: dose 20 mg/kg, route oral. The settings on record: mouse.
Series [6] is described as follows: Maximum plasma concentration was determined in mice after 20 mg/kg oral administration of the compound. It is filed as ADME, organism-based. The arrangement: dose 20 mg/kg, route oral. The settings on record: mouse.

A word on the IC50: it is the concentration that inhibits the measured activity by half. The term Tmax denotes the time at which the peak concentration occurs. A word on the Cmax: it is the peak of the concentration-time curve.

A value given as a limit tells only on which side of the number the result lay.

Sequence of Tyrosine-protein kinase ABL1 (P00519 whole entry): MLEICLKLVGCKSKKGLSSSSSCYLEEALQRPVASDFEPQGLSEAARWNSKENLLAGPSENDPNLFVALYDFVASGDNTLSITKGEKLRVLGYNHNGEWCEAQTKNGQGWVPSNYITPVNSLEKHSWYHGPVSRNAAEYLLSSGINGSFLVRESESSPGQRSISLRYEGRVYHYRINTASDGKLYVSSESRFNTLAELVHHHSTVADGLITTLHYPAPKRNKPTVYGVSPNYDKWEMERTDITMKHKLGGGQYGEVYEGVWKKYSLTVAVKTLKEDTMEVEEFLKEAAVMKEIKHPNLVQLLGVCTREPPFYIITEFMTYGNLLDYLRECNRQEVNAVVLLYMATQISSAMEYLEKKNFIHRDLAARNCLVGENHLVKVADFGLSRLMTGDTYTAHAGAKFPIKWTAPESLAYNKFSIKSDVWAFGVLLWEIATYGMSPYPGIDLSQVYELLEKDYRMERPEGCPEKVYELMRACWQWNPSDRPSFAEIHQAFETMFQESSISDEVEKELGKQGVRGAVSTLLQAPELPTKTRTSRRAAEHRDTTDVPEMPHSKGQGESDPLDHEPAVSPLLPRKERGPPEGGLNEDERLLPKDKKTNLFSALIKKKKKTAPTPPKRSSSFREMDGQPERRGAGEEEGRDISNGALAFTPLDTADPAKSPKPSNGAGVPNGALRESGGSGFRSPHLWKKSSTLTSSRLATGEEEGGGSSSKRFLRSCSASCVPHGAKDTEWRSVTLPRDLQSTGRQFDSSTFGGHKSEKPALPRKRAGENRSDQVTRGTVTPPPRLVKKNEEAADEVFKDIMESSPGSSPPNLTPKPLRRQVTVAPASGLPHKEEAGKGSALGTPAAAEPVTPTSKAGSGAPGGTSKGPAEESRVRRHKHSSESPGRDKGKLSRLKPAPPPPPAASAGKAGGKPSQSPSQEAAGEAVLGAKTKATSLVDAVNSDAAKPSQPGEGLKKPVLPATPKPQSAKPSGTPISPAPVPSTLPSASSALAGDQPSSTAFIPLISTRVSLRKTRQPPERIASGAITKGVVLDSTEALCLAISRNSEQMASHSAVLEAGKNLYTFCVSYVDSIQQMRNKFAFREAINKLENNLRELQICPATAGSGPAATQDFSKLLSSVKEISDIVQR

For `Cc1ccc(NC(=O)Nc2cccnc2)cc1Nc1nccc(-c2cccnc2)n1`, the figures for the 50% inhibitory concentration (IC50) in series [1] and in series [2] were 96 nM and 1000 nM, respectively.

On to `Cc1ccc(NC(=O)NCCN2CCCC2)cc1Nc1nccc(-c2cccnc2)n1`, for which the IC50 in series [3] (read-out: IC50) is over 9000 nM; in series [1] it was 655 nM.

As to `Cc1ccc(NC(=O)N2CCCCC2)cc1Nc1nccc(-c2cccnc2)n1`, the 50% inhibitory concentration (IC50) in series [1] was 63 nM. Also, in series [4], the concentration at 2 h turned out to be 510 nM. The time of peak concentration (Tmax) in series [5] is 30 min. The compound also returned a Cmax in series [6] of 4320 nM.

Regarding `CCN(CC)c1cccc(NC(=O)Nc2ccc(C)c(Nc3nccc(-c4cccnc4)n3)c2)c1`, the IC50 in series [3] (read-out: IC50) was over 1000 nM; in series [1], 47 nM; in series [2] it was 280 nM.

For the compound `Cc1ccc(NC(=O)Nc2cccc(Cl)c2)cc1Nc1nccc(-c2cccnc2)n1`, the IC50 in series [3] (read-out: IC50) amounted to 1000 nM; in series [1], 17 nM; in series [2], 175 nM.

As for `Cc1ccc(NC(=O)Nc2cccc(CN3CCN(C)CC3)c2)cc1Nc1nccc(-c2cccnc2)n1`, the IC50 in series [1] turned out to be 192 nM.

In the case of `Cc1ccc(NC(=O)Nc2ccccc2CN(C)C2CCCCC2)cc1Nc1nccc(-c2cccnc2)n1`, the results for the 50% inhibitory concentration (IC50) in series [1] and in series [2] were 100 nM and 870 nM, respectively.

`Cc1ccc(NC(=O)Nc2cccc3[nH]ncc23)cc1Nc1nccc(-c2cccnc2)n1` returned an IC50 in series [1] of 375 nM.

Take `Cc1ccc(NC(=O)N2CCN(Cc3ccncc3)CC2)cc1Nc1nccc(-c2cccnc2)n1`: the 50% inhibitory concentration (IC50) in series [1] was 256 nM.

In the case of `Cc1ccc(NC(=O)N2CCN(C)CC2)cc1Nc1nccc(-c2cccnc2)n1`, the results for the IC50 in series [3] (read-out: IC50) and in series [1] were over 5000 nM and 132 nM, respectively.

`CCN(CC)c1ccc(NC(=O)Nc2ccc(C)c(Nc3nccc(-c4cccnc4)n3)c2)cc1`: the IC50 in series [3] (read-out: IC50) is over 10000 nM; in series [1] it was 2020 nM; in series [2], over 3400 nM.

`Cc1ccc(NC(=O)NCc2ccc(N(C)C)cc2)cc1Nc1nccc(-c2cccnc2)n1` showed an IC50 in series [1] of 236 nM.

`Cc1ccc(NC(=O)N(C)CCCO)cc1Nc1nccc(-c2cccnc2)n1` yielded an IC50 in series [1] of over 3000 nM.

In the case of `Cc1ccc(NC(=O)NCCCO)cc1Nc1nccc(-c2cccnc2)n1`, in series [1], the half-inhibitory concentration (IC50) is over 3000 nM.

In series [1], `Cc1ccc(NC(=O)N2CCC(N3CCCC3)CC2)cc1Nc1nccc(-c2cccnc2)n1` yielded an IC50 of 176 nM.

Take `Cc1ccc(NC(=O)NCCCN2CCOCC2)cc1Nc1nccc(-c2cccnc2)n1`: in series [1], the 50% inhibitory concentration (IC50) is 414 nM.

The compound `Cc1ccc(NC(=O)NCCCn2ccnc2)cc1Nc1nccc(-c2cccnc2)n1` had an IC50 in series [1] of over 1300 nM.

`Cc1ccc(NC(=O)Nc2cccc(N3CCCC3)c2)cc1Nc1nccc(-c2cccnc2)n1` came in with an IC50 in series [1] of over 2500 nM.

Consider `Cc1ccc(NC(=O)Nc2cccc(N(C)C)c2)cc1Nc1nccc(-c2cccnc2)n1`, for which the values for the 50% inhibitory concentration (IC50) in series [3], in series [1] and in series [2] were 573 nM, 26 nM and 56 nM, respectively. Moreover, the concentration at 2 h in series [4] is 300 nM. For the same compound, the Tmax in series [5] is 30 min. In series [6], this compound gave a maximum concentration (Cmax) of 1370 nM.

The compound `Cc1ccc(NC(=O)Nc2cccc3ncccc23)cc1Nc1nccc(-c2cccnc2)n1` registered an IC50 in series [1] of 64 nM. For the same compound, in series [4], the concentration at 2 h is 50 nM. In addition, the Tmax in series [5] was 30 min. Besides, the highest level in series [6] (Cmax) was 170 nM.

As for `Cc1ccc(NC(=O)Nc2ccc(N(C)C)cc2)cc1Nc1nccc(-c2cccnc2)n1`, the results for the IC50 in series [3] (read-out: IC50), in series [1] and in series [2] were over 10000 nM, 1730 nM and over 5000 nM, respectively.

The compound `Cc1ccc(NC(=O)NCCCN(C)C)cc1Nc1nccc(-c2cccnc2)n1` gave a half-maximal inhibitory concentration (IC50) in series [1] of over 1600 nM.
